According to ChEMBL document CHEMBL1201862, “PubChem BioAssay data set” (2004):
Calls of active or inactive are those of the source.

Experiments:
[1] = target: Peroxisome proliferator-activated receptor gamma/Nuclear receptor coactivator 1 (Homo sapiens, UniProt P37231); format: functional;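 also: agonist potency as compounds enhance coactivator SRC-1 recruitment to PPARgamma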
[2] = target: Peroxisome proliferator-activated receptor gamma/Nuclear receptor coactivator 3 (Homo sapiens, UniProt P37231); format: functional;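 also: agonist potency for raising coactivator recruitment to the receptor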
[3] = target: Peroxisome proliferator-activated receptor gamma/Nuclear receptor coactivator 2 (Homo sapiens, UniProt P37231); format: functional;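 also: agonist potency for raising coactivator recruitment to the receptor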
Sequence of Peroxisome proliferator-activated receptor gamma/Nuclear receptor coactivator 2 (P37231 whole entry): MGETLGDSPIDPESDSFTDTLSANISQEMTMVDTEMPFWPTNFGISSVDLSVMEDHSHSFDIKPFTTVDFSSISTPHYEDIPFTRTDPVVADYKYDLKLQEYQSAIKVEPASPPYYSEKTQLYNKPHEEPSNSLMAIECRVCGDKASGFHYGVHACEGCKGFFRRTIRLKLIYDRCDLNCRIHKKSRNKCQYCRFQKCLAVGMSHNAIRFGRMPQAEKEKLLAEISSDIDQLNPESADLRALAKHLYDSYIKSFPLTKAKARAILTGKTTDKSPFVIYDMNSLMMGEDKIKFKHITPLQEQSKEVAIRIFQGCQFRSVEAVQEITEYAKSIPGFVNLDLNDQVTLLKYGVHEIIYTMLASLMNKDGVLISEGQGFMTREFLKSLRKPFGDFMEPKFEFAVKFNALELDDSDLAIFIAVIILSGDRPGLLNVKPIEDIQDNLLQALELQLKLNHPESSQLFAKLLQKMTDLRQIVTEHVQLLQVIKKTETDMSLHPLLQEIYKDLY
Sequence of Peroxisome proliferator-activated receptor gamma/Nuclear receptor coactivator 2 (Q15596 whole entry, further chain): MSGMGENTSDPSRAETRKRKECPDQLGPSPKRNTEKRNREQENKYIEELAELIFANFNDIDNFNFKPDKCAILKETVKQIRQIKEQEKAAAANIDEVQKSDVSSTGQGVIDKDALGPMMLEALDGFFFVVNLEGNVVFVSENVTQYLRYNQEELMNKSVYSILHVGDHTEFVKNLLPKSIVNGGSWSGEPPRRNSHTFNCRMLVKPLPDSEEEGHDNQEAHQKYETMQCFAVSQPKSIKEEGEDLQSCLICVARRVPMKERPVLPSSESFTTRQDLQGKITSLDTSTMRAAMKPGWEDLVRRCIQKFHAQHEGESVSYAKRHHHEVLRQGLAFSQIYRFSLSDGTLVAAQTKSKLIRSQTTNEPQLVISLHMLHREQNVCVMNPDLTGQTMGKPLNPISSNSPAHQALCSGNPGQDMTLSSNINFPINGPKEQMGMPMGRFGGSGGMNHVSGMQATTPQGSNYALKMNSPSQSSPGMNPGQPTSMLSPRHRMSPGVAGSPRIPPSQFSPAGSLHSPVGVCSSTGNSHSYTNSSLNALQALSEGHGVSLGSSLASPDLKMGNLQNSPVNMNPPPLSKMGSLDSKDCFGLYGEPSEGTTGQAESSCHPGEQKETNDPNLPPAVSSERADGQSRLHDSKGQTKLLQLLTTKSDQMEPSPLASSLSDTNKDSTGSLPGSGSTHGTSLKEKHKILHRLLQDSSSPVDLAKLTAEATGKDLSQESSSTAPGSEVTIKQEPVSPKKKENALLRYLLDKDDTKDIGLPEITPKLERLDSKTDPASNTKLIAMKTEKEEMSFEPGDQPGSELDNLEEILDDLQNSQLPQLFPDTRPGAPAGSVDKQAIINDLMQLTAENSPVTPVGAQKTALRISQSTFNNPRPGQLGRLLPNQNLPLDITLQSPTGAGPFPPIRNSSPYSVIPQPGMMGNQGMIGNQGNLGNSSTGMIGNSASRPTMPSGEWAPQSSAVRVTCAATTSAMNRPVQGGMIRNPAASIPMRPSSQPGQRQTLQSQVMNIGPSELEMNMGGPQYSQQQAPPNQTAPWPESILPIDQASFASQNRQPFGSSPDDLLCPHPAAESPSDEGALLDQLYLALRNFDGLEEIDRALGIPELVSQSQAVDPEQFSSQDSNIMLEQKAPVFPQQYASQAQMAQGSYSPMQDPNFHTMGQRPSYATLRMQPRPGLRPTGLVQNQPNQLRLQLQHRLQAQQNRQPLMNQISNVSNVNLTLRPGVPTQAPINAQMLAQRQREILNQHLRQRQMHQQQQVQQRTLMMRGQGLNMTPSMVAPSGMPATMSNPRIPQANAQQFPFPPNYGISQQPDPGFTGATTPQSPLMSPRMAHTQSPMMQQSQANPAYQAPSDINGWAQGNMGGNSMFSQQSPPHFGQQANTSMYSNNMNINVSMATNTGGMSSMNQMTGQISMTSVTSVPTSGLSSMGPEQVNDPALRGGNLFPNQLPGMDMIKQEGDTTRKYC

[4] = target: FAD-linked sulfhydryl oxidase ALR (Homo sapiens, UniProt P55789); assay: ALR-catalysed DTT oxidation blockers – biochemical, H2O2 detection, luminescence, cherry-pick, dose response (AID 493248)
Sequence of FAD-linked sulfhydryl oxidase ALR (P55789 whole entry): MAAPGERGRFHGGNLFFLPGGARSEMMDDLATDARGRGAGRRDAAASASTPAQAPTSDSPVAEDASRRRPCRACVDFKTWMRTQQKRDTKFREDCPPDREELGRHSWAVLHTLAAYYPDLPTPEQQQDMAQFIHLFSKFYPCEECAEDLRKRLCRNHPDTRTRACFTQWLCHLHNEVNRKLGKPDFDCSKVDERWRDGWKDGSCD

Estrogen receptor beta [5] = target: T1, Estrogen receptor beta (Homo sapiens, UniProt Q92731);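 also: recombinant ER-beta bound to coactivator SRC1 peptide in presence of estradiol agonist; inhibitors block coactivator peptide binding and lower the FRET signal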
T1 sequence (Q92731 whole entry): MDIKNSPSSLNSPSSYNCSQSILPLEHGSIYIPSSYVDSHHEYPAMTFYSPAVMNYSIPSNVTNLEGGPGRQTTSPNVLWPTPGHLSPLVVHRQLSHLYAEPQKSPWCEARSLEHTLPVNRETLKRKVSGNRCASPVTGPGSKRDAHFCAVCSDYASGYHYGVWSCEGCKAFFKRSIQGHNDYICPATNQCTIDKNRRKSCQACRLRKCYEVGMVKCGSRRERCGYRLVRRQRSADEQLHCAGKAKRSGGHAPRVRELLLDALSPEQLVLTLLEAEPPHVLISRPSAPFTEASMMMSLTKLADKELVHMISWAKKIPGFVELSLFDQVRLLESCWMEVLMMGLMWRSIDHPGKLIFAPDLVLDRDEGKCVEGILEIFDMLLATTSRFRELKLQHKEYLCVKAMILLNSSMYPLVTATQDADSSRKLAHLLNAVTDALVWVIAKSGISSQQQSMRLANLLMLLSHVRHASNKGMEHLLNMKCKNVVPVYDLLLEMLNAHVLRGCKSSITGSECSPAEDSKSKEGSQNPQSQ

Estrogen receptor beta [6] = target: T1, Estrogen receptor beta; assay: blockers of SRC-3 recruitment to ERβ – biochemical, ELISA, streptavidin-HRP readout, orthogonal assay, confirmation (AID 1060)
[7] = target: Ubiquitin carboxyl-terminal hydrolase BAP1 (Homo sapiens, UniProt Q92560); assay: inhibition of BAP1 ubiquitin hydrolase activity – biochemical, dose response (AID 714); format: functional
Sequence of Ubiquitin carboxyl-terminal hydrolase BAP1 (Q92560 whole entry): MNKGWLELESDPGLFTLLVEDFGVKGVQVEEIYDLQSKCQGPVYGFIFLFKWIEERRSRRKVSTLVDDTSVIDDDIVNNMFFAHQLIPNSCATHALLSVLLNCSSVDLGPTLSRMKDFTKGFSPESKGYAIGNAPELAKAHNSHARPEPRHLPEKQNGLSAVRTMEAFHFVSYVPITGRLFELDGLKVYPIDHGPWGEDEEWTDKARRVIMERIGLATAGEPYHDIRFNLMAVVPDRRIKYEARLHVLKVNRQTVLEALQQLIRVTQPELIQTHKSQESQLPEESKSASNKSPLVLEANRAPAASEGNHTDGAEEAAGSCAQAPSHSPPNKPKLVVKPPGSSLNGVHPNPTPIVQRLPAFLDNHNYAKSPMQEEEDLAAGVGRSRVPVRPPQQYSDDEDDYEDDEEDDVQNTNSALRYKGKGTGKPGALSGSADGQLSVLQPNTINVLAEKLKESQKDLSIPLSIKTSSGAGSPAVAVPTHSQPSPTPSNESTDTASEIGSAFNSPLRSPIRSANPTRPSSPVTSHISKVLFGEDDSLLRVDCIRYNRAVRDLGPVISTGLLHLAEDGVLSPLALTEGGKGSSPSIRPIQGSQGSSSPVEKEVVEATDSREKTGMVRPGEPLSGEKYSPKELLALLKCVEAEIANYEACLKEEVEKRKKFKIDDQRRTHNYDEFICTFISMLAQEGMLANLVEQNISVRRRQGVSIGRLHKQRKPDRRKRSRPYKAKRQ

[8] = target: Heat shock protein HSP 90-alpha (Homo sapiens, UniProt P07900); format: functional, organism-based
Cytochrome P450 2C19 [9] = target: T2, Cytochrome P450 2C19 (Homo sapiens, UniProt P33261); assay: Cytochrome panel assay with activity outcomes. Panel member name: p450-cyp2c19 Compounds with AC50 equal or less than 10 uM are considered active; format: functional
T2 sequence (P33261 whole entry): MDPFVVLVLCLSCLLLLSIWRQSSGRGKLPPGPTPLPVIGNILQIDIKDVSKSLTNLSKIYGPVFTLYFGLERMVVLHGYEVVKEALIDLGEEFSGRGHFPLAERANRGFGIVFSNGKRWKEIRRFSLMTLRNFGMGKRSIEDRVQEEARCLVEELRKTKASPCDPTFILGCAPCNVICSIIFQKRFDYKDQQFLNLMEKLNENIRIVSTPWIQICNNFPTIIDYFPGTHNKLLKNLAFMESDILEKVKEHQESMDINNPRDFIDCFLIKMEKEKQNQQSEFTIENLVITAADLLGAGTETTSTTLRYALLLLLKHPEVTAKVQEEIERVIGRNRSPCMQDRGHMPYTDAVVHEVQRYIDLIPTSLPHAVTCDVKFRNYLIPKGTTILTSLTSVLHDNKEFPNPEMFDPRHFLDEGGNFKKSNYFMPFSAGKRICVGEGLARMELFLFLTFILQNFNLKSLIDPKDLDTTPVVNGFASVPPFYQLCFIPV

[10] = Luminescent dose response cell-based high throughput screening assay for inhibitors of the Janus kinase 2 mutant JAK2V617F. [Related pubchem assays: 1446 (Primary screen.), 1521 (Confirmation assay.), 1486 (Counter screen.)]; format: functional
[11] = target: T3, Heat shock factor protein 1 (Mus musculus, UniProt P38532); assay: decrease of HSF1-responsive luciferase luminescence – cell-based, NIH3T3, dose retest, confirmation (AID 2382); format: functional;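 also: NIH3T3 fibroblasts with HSF1-driven luciferase reporter stressed by proteasome inhibitor MG132; luminescence from HSF1-driven luciferase expression after 8 hours of MG132 stress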
T3 sequence (P38532 whole entry): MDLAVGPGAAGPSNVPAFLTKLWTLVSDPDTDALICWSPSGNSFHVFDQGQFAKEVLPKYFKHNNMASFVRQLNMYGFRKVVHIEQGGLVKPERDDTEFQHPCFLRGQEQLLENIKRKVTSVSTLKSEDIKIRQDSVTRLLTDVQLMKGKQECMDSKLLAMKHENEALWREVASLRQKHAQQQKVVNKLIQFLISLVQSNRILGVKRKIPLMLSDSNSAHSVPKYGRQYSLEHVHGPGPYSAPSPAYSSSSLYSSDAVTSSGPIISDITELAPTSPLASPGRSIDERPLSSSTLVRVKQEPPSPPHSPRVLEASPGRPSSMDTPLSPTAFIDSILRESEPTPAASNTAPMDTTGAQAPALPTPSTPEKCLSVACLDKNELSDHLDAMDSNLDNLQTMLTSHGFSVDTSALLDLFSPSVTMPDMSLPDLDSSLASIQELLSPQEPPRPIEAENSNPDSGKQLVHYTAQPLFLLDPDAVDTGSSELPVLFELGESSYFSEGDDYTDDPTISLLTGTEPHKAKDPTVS

Cytochrome P450 2C19 [12] = target: T2, Cytochrome P450 2C19; assay: qHTS Assay for Inhibitors and Substrates of Cytochrome P450 2C19. [Related pubchem assays: 410 ]; format: ADME; conditions: read-out: Potency
[13] = target: Glyceraldehyde-3-phosphate dehydrogenase (Homo sapiens, UniProt P04406)
Sequence of Glyceraldehyde-3-phosphate dehydrogenase (P04406 whole entry): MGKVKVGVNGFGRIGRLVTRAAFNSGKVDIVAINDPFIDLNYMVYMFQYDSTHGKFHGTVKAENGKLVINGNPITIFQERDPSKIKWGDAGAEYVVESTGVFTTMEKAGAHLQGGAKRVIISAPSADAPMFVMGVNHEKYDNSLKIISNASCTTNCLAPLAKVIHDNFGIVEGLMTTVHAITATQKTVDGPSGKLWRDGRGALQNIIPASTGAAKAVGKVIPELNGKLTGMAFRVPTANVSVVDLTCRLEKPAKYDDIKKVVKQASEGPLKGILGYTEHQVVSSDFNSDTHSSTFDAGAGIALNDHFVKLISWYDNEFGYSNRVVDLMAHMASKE

Bcl-2-related protein A1 [14] = target: T4, Bcl-2-related protein A1 (Mus musculus, UniProt Q07440); assay: Bfl-1 binding inhibitors, SAR follow-up, biochemical, fluorescence polarization (AID 1070)
T4 sequence (Q07440 whole entry): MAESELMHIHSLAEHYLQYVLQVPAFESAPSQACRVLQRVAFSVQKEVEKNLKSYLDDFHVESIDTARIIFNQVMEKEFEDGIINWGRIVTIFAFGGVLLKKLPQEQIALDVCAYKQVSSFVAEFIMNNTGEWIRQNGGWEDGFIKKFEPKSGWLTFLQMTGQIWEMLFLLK

Bcl-2-related protein A1 [15] = target: T4, Bcl-2-related protein A1; assay: small-molecule antagonists of Bfl-1/BH3 interaction – biochemical, TR-FRET, mouse Bfl-1, confirmation (AID 621);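 also: TR-FRET binding of GST-Bfl-1 to FITC-labelled Bid peptide via terbium antibody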
[16] = Luminescence Cell-Based Dose Response to Identify Activators of 5'UTR Stem-Loop Driven Prion Protein mRNA Translation in H4-C Neuroglioblastoma Cells. [Related pubchem assays: 1829 (Project Summary), 1814 (Primary HTS)]; format: functional
A-375 [17] = assay: MITF: Counter assay: A375 proliferation Measured in Cell-Based System Using Plate Reader - 2084-03_Inhibitor_Dose_DryPowder_Activity. [Related pubchem assays (depositor defined):AID488944]; format: functional; conditions: Homo sapiens
H4 = assay: Luminescence Cell-Based Dose Response HTS to Identify Activators of 5'UTR Stem-Loop Driven Prion Protein mRNA Translation in H4 Neuroglioblastoma Cells. [Related pubchem assays: 1829 (Project Summary), 1814 (Primary HTS)]; format: functional; conditions: Homo sapiens
HeLa = assay: ATP-based viability loss in HeLa cells – cell-based, CellTiter-Glo luminescence, cherry-pick samples, cytotoxicity control for MITF activator project, dose response (AID 540259); format: functional; conditions: Homo sapiens
[18] = Luminescence Cell-Based Dose Confirmation to Identify Activators of 5'UTR Stem-Loop Driven Alpha-Synuclein mRNA Translation in H4 Neuroglioblastoma Cells. [Related pubchem assays: 1829 (Project Summary), 1814 (Primary HTS)]; format: functional
[19] = Luminescence Cell-Based Dose Response to Identify Activators of Luciferase Translation or Activity in H4-C Neuroglioblastoma Cells. [Related pubchem assays: 1829 (Project Summary), 1814 (Primary HTS)]; format: functional
A-375 [20] = assay: proliferation inhibition in MITF-low A375 cells – cell-based, cherry-pick samples, set 2, counter-screen for MITF modulator project, dose response (AID 540335); format: functional; conditions: Homo sapiens
[21] = Luminescence Cell-Based Dose Response HTS to Identify Activators of Luciferase Translation or Activity in H4 […] Cells. [Related pubchem assays: 1829 (Project Summary), 1814 (Primary HTS)]; format: functional
Leucine aminopeptidase = target: T5, Leucine aminopeptidase (Plasmodium falciparum 3D7, UniProt Q8IL11); assay: P. falciparum M17LAP inhibitors, primary screen, biochemical, fluorogenic H-Leu-NHMec substrate, 1536-well (AID 1619); format: functional
T5 sequence (Q8IL11 whole entry): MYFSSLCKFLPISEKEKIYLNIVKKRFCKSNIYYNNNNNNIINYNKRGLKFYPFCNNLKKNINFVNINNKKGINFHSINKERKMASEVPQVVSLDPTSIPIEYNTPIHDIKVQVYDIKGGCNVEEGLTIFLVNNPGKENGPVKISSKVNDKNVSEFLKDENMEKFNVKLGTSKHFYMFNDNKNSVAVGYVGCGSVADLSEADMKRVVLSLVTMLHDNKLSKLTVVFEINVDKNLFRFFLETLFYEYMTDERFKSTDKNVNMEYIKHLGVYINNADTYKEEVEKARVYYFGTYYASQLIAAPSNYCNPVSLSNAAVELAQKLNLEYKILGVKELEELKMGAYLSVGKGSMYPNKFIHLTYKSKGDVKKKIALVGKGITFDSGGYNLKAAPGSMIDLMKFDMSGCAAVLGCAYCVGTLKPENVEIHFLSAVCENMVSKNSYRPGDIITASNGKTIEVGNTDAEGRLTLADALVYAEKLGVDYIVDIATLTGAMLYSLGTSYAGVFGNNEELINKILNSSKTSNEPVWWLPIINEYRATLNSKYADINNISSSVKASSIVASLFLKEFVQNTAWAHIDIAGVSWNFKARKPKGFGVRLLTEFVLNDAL

Aspartyl aminopeptidase = target: T6, Aspartyl aminopeptidase (Plasmodium falciparum 3D7, UniProt Q8I2J3); assay: Counterscreen for inhibitors of M1 and M17 aminopeptidases: QFRET-based biochemical high throughput dose response assay for inhibitors of the Plasmodium falciparum M18 Aspartyl Aminopeptidase (PFM18AAP). [Related PubChem assays: 1619 (Screening assay (M17LAP inhibitors).), 1445 (Screening assay (M1AAP inhibitors).)]
T6 sequence (Q8I2J3 whole entry): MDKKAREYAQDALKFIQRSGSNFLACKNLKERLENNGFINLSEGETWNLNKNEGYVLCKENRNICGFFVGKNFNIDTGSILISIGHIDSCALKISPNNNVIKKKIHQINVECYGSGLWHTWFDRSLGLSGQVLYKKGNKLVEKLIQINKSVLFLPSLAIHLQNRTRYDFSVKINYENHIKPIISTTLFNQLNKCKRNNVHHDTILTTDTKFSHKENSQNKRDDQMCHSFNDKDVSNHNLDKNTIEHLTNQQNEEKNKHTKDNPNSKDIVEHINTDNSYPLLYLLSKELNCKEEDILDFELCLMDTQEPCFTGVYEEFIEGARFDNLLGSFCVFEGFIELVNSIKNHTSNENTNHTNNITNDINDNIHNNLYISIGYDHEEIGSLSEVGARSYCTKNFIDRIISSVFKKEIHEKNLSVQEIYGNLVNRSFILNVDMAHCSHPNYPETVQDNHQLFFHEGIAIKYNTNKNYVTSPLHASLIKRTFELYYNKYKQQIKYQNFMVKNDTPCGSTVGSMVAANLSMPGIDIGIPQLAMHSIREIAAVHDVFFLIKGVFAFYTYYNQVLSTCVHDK

Procathepsin L = Procathepsin L (Homo sapiens, UniProt P07711); assay: CTSL1 protease inhibition – biochemical, QFRET, 1536-well, counter-screen for M1/M17 aminopeptidase inhibitor project, dose response (AID 2214)
Sequence of Procathepsin L (P07711 whole entry): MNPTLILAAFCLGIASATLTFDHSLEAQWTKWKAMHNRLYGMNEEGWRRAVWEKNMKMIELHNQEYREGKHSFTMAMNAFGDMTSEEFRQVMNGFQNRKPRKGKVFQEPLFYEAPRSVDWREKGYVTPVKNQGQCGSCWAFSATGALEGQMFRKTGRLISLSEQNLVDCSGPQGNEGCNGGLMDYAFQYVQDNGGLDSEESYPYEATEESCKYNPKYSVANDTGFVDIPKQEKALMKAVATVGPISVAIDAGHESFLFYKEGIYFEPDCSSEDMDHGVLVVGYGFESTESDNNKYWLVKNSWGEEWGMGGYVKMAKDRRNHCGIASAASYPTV

Bcl-2-like protein 1 = Bcl-2-like protein 1 (Homo sapiens, UniProt Q07817); assay: blockers of BCLXL peptide binding – biochemical, fluorescence polarization, 1536-well, selectivity assay for MCL1 inhibitor project, dose response (AID 2218)
Sequence of Bcl-2-like protein 1 (Q07817 whole entry): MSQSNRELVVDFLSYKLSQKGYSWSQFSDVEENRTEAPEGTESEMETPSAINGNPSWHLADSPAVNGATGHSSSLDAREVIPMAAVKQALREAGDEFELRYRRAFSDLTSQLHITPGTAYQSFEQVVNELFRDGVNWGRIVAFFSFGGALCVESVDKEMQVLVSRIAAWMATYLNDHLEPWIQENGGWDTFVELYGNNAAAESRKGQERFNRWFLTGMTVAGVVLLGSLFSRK

[22] = target: Induced myeloid leukemia cell differentiation protein Mcl-1 (Homo sapiens, UniProt Q07820); assay: blockers of MCL1 binding to BIM peptide – biochemical, fluorescence polarization, BIM-BH3 peptide, 1536-well, dose response (AID 2217)
[23] = HIV-1 AD8 envelope cell-cell fusion blockers – cherry-pick, dose response (AID 652062); format: functional, cell-based;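 also: luciferase signal from cell-cell fusion driven by HIV-1 clade B AD8 Env; potency is for inhibitors of fusion seen as a drop in luminescence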
[24] = target: T3, Heat shock factor protein 1; assay: enhancement of HSF1-driven luciferase signal – cell-based, NIH3T3, luminescence, dose retest, confirmation (AID 435004); format: functional;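 also: stress induced by proteasome inhibitor MG132 added 30 min after compound; luciferase reporter driven by HSF1 response element in NIH3T3 cells; actives raise luminescence as potentiators of the MG132 stress response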
[25] = blockers of HIV-1 envelope-mediated cell-cell fusion – cherry-pick, dose response (AID 652057); format: functional, cell-based
[26] = blockers of HIV-1 ZM109 envelope-driven cell-cell fusion – HeLa effector, CEM target cells, luciferase, cherry-pick, dose response (AID 652058); format: functional, cell-based;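 also: luciferase signal from HIV-1 Env mediated cell-cell fusion of effector and target cells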
[27] = off-target signal loss in HeLa-CEM21 co-culture – HeLa F-luc CTL cells, cherry-picked, counter-screen for HIV-1 Env fusion inhibitor project, dose response (AID 652040); format: functional, cell-based;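 also: potency for signal decrease marking cytotoxic or nonspecific inhibition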
[28] = viability loss in CEM21 cells – cell-based, CellTiter-Glo luminescence, cherry-picked, cytotoxicity control for viral fusion inhibitor project, dose response (AID 652042); format: functional;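 also: potency for signal decrease meaning cytotoxicity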

CCc1nc(SCc2ccc(F)cc2)[nH]c(=O)c1C#N
EC50 [1]: > 79.4 µM (not active)
EC50 [2]: > 79.4 µM (not active)
EC50 [3]: > 79.4 µM (not active)
AC50 [4]: 0.622 µM (active)

N#Cc1ccsc1NC(=O)CSc1ncnc2ccccc12
IC50 (Estrogen receptor beta [5]): > 50 µM (not active)
IC50 (Estrogen receptor beta [6]): < 0.023 µM (not active)

CC1=CC(C)(C)Nc2cc(C)c(C)cc21
IC50 [7]: > 50 µM (not active)

C/C(=N\Nc1nc2ccccc2s1)c1ccc(Br)s1
EC50 [1]: > 79.4 µM (not active)
EC50 [2]: > 79.4 µM (not active)
EC50 [3]: > 79.4 µM (not active)
AC50 [8]: 3.85 µM (active)

O=C(NCc1ccccc1)c1cnc2ccc(S(=O)(=O)Nc3ccc4c(c3)OCCO4)cc2c1O
IC50 [7]: > 50 µM (not active)

Nc1nc(N)c2nc(-c3ccccc3)c(N)nc2n1
AC50 (Cytochrome P450 2C19 [9]): inactive
IC50 [10]: 0.807 µM (active)
EC50 [11]: > 195 µM (not active)

CC(C)(C)/C(O)=C/c1nc2cc(Cl)ccc2oc1=O
IC50 [10]: 1.7 µM (active)

COc1cc([C@@H]2Oc3cc([C@H]4Oc5cc(O)cc(O)c5C(=O)[C@H]4O)ccc3O[C@H]2CO)ccc1O
AC50 (Cytochrome P450 2C19 [12]): 15.8 µM (inconclusive)

COc1ccccc1N1CCN(C2=C(Cl)C(=O)N(c3ccc(Cl)c(Cl)c3)C2=O)CC1
IC50 [13]: > 100 µM (not active)
IC50 (Bcl-2-related protein A1 [14]): 9.57 µM (active)
IC50 (Bcl-2-related protein A1 [15]): 6.25 µM (active)

COc1ccc(/C=N/N=C2/SCC(=O)N2Cc2ccccc2)cc1
EC50 [16]: 0.361 µM (active)
AC50 (A-375 [17]): > 35 µM (active)
EC50 (H4): > 120 µM (not active)
AC50 (HeLa): 164 µM (active)
EC50 [18]: 0.581 µM (active)
EC50 [19]: 0.335 µM (active)
AC50 (A-375 [20]): > 35 µM (active)
EC50 [21]: < 0.1 µM (active)

Cc1ccc(Nc2nnc(SC3CCOC3=O)s2)cc1 (stereo not drawn)
IC50 (Leucine aminopeptidase): 1.94 µM (active)
IC50 (Aspartyl aminopeptidase): > 73.5 µM (not active)
IC50 (Procathepsin L): > 59.6 µM (not active)

CCCCCCC(=O)Cc1cc(OC)c(OC)cc1C=C(C(=O)OCC)C(=O)OCC
AC50 (Cytochrome P450 2C19 [12]): 3.16 µM (inconclusive)

O=C1C(Cl)=C(N2CCOCC2)C(=O)N1c1ccc(Cl)c(Cl)c1
IC50 [13]: > 100 µM (not active)
IC50 (Bcl-2-related protein A1 [14]): 1.51 µM (active)
IC50 (Bcl-2-related protein A1 [15]): 1.29 µM (active)

Cc1cc[n+](-c2[n-]c(=O)sc2/C=N/NC(=O)CCn2c3ccccc3c3ccccc32)cc1
IC50 (Bcl-2-like protein 1): 27.6 µM (not active)
IC50 [22]: 14.1 µM (not active)

CCC1CCc2c(sc(NC(=O)C3CC=CCC3C(=O)O)c2C#N)C1 (stereo not drawn)
IC50 (Leucine aminopeptidase): < 1 µM (active)
IC50 (Aspartyl aminopeptidase): > 73.5 µM (not active)
IC50 (Procathepsin L): > 59.6 µM (not active)

O=C(Oc1ccc2c(c1)OCO2)c1cc2c(s1)CCC2
IC50 (Estrogen receptor beta [5]): < 1.56 µM (active)
AC50 [23]: 7.2 µM (active)
EC50 [24]: > 260 µM (inactive)
AC50 [25]: 10.4 µM (active)
AC50 [26]: 3.31 µM (active)
AC50 [27]: 10.8 µM (active)
AC50 [28]: 2.01 µM (active)
IC50 (Estrogen receptor beta [6]): < 0.023 µM (not active)
